Measured values taken from the NIST ThermoML archive (doi:10.1016/j.jct.2014.01.006).
Where “and” joins values, the source holds several entries; their conditions need not be identical. Identical values can stand only once. ± gives the expanded uncertainty stated by the source.

What was measured:
[1] = for vapor or sublimation pressure: Liquid, Ebulliometric method (Recirculating still); for Triple point temperature: Adiabatic calorimetry
[2] = molar heat capacity at saturation pressure
[3] = Molar enthalpy of transition or fusion; details: Crystal; Adiabatic calorimetry

c1ccc(-c2ccc3ccccc3c2)cc1 [2-phenylnaphthalene]
[1]
Details	Triple point temperature [K]	vapor or sublimation pressure [kPa]
482.85 K	–	1.996 ± 0.0082
502.83 K	–	3.998 ± 0.0084
511.75 K	–	5.335 ± 0.0089
524.93 K	–	7.993 ± 0.0095
534.9 K	–	10.67 ± 0.01
542.89 K	–	13.33 ± 0.011
551.2 K	–	16.66 ± 0.013
558.16 K	–	19.95 ± 0.014
567.23 K	–	25.03 ± 0.016
576.35 K	–	31.16 ± 0.018
585.57 K	–	38.56 ± 0.022
594.82 K	–	47.36 ± 0.025
604.12 K	–	57.8 ± 0.027
Crystal	374.77 ± 0.039	–
Metastable crystal	331.4 ± 0.1	–

[2]
Details	molar heat capacity
5.559 K, Metastable crystal, Vacuum adiabatic calorimetry	0.7317 ± 0.025 J/K/mol
6.48 K, Metastable crystal, Vacuum adiabatic calorimetry	1.172 ± 0.042 J/K/mol
7.437 K, Metastable crystal, Vacuum adiabatic calorimetry	1.821 ± 0.058 J/K/mol
8.415 K, Metastable crystal, Vacuum adiabatic calorimetry	2.519 ± 0.083 J/K/mol
9.445 K, Metastable crystal, Vacuum adiabatic calorimetry	3.484 ± 0.11 J/K/mol
10.55 K, Metastable crystal, Vacuum adiabatic calorimetry	4.639 ± 0.042 J/K/mol
11.76 K, Metastable crystal, Vacuum adiabatic calorimetry	5.912 ± 0.05 J/K/mol
13.12 K, Metastable crystal, Vacuum adiabatic calorimetry	7.541 ± 0.067 J/K/mol
14.58 K, Metastable crystal, Vacuum adiabatic calorimetry	9.304 ± 0.075 J/K/mol
16.16 K, Metastable crystal, Vacuum adiabatic calorimetry	11.42 ± 0.083 J/K/mol
17.89 K, Metastable crystal, Vacuum adiabatic calorimetry	13.64 ± 0.1 J/K/mol
19.78 K, Metastable crystal, Vacuum adiabatic calorimetry	16.13 ± 0.11 J/K/mol
21.84 K, Metastable crystal, Vacuum adiabatic calorimetry	18.86 ± 0.12 J/K/mol
24.08 K, Metastable crystal, Vacuum adiabatic calorimetry	21.79 ± 0.14 J/K/mol
26.55 K, Metastable crystal, Vacuum adiabatic calorimetry	25.04 ± 0.15 J/K/mol
29.3 K, Metastable crystal, Vacuum adiabatic calorimetry	28.54 ± 0.17 J/K/mol
32.36 K, Metastable crystal, Vacuum adiabatic calorimetry	32.33 ± 0.083 J/K/mol
35.77 K, Metastable crystal, Vacuum adiabatic calorimetry	36.35 ± 0.091 J/K/mol
39.57 K, Metastable crystal, Vacuum adiabatic calorimetry	40.62 ± 0.1 J/K/mol
43.81 K, Metastable crystal, Vacuum adiabatic calorimetry	45.16 ± 0.11 J/K/mol
48.55 K, Metastable crystal, Vacuum adiabatic calorimetry	49.75 ± 0.11 J/K/mol
53.87 K, Metastable crystal, Vacuum adiabatic calorimetry	54.71 ± 0.12 J/K/mol
54.57 K, Metastable crystal, Vacuum adiabatic calorimetry	55.24 ± 0.12 J/K/mol
59.82 K, Metastable crystal, Vacuum adiabatic calorimetry	59.78 ± 0.12 J/K/mol
59.83 K, Metastable crystal, Vacuum adiabatic calorimetry	59.82 ± 0.13 J/K/mol
65.64 K, Metastable crystal, Vacuum adiabatic calorimetry	64.42 ± 0.13 J/K/mol
66.41 K, Metastable crystal, Vacuum adiabatic calorimetry	64.99 ± 0.14 J/K/mol
72.14 K, Metastable crystal, Vacuum adiabatic calorimetry	69.36 ± 0.14 J/K/mol
79.33 K, Metastable crystal, Vacuum adiabatic calorimetry	74.52 ± 0.15 J/K/mol
84.66 K, Metastable crystal, Vacuum adiabatic calorimetry	78.26 ± 0.16 J/K/mol
87.38 K, Metastable crystal, Vacuum adiabatic calorimetry	80.02 ± 0.17 J/K/mol
91.53 K, Metastable crystal, Vacuum adiabatic calorimetry	82.9 ± 0.22 J/K/mol
96.29 K, Metastable crystal, Vacuum adiabatic calorimetry	86.19 ± 0.22 J/K/mol
100.11 K, Metastable crystal, Vacuum adiabatic calorimetry	88.71 ± 0.22 J/K/mol
109.67 K, Metastable crystal, Vacuum adiabatic calorimetry	95.07 ± 0.23 J/K/mol
119.51 K, Metastable crystal, Vacuum adiabatic calorimetry	101.67 ± 0.23 J/K/mol
129.29 K, Metastable crystal, Vacuum adiabatic calorimetry	108.34 ± 0.24 J/K/mol
139.13 K, Metastable crystal, Vacuum adiabatic calorimetry	115.15 ± 0.25 J/K/mol
149.04 K, Metastable crystal, Vacuum adiabatic calorimetry	122.22 ± 0.26 J/K/mol
159.05 K, Metastable crystal, Vacuum adiabatic calorimetry	129.45 ± 0.27 J/K/mol
169.13 K, Metastable crystal, Vacuum adiabatic calorimetry	137.04 ± 0.27 J/K/mol
179.22 K, Metastable crystal, Vacuum adiabatic calorimetry	144.69 ± 0.28 J/K/mol
189.28 K, Metastable crystal, Vacuum adiabatic calorimetry	152.55 ± 0.29 J/K/mol
199.33 K, Metastable crystal, Vacuum adiabatic calorimetry	160.58 ± 0.3 J/K/mol
210.43 K, Metastable crystal, Vacuum adiabatic calorimetry	169.63 ± 0.32 J/K/mol
222.54 K, Metastable crystal, Vacuum adiabatic calorimetry	179.67 ± 0.32 J/K/mol
234.7 K, Metastable crystal, Vacuum adiabatic calorimetry	190.12 ± 0.33 J/K/mol
246.9 K, Metastable crystal, Vacuum adiabatic calorimetry	200.49 ± 0.35 J/K/mol
260.13 K, Metastable crystal, Vacuum adiabatic calorimetry	212.11 ± 0.36 J/K/mol
274.34 K, Metastable crystal, Vacuum adiabatic calorimetry	224.81 ± 0.37 J/K/mol
281.75 K, Metastable crystal, Vacuum adiabatic calorimetry	231.62 ± 0.38 J/K/mol
287.18 K, Metastable crystal, Vacuum adiabatic calorimetry	236.87 ± 0.39 J/K/mol
288.45 K, Metastable crystal, Vacuum adiabatic calorimetry	238 ± 0.39 J/K/mol
288.88 K, Metastable crystal, Vacuum adiabatic calorimetry	238.28 ± 0.39 J/K/mol
289.67 K, Metastable crystal, Vacuum adiabatic calorimetry	239.32 ± 0.39 J/K/mol
290.86 K, Metastable crystal, Vacuum adiabatic calorimetry	240.77 ± 0.39 J/K/mol
297.62 K, Metastable crystal, Vacuum adiabatic calorimetry	247.26 ± 0.4 J/K/mol
302.22 K, Metastable crystal, Vacuum adiabatic calorimetry	251.81 ± 0.41 J/K/mol
303.66 K, Metastable crystal, Vacuum adiabatic calorimetry	253.46 ± 0.41 J/K/mol
304.26 K, Metastable crystal, Vacuum adiabatic calorimetry	253.82 ± 0.41 J/K/mol
305.95 K, Metastable crystal, Vacuum adiabatic calorimetry	255.73 ± 0.42 J/K/mol
316.27 K, Metastable crystal, Vacuum adiabatic calorimetry	265.74 ± 0.42 J/K/mol
319.32 K, Metastable crystal, Vacuum adiabatic calorimetry	269.07 ± 0.42 J/K/mol
319.63 K, Metastable crystal, Vacuum adiabatic calorimetry	269.43 ± 0.42 J/K/mol
323.18 K, Metastable crystal, Vacuum adiabatic calorimetry	273.51 ± 0.43 J/K/mol
328.64 K, Metastable crystal, Vacuum adiabatic calorimetry	281.65 ± 0.44 J/K/mol
334.1 K, Crystal, Vacuum adiabatic calorimetry	295.45 ± 0.46 J/K/mol
339.55 K, Crystal, Vacuum adiabatic calorimetry	300.3 ± 0.47 J/K/mol
340.55 K, Crystal, Vacuum adiabatic calorimetry	301.83 ± 0.47 J/K/mol
345.85 K, Crystal, Vacuum adiabatic calorimetry	308.66 ± 0.47 J/K/mol
346.7 K, Crystal, Vacuum adiabatic calorimetry	310.38 ± 0.47 J/K/mol
352.89 K, Crystal, Vacuum adiabatic calorimetry	319.98 ± 0.49 J/K/mol
354.52 K, Crystal, Vacuum adiabatic calorimetry	323.81 ± 0.49 J/K/mol
355.25 K, Crystal, Vacuum adiabatic calorimetry	323.51 ± 0.49 J/K/mol
356.41 K, Crystal, Vacuum adiabatic calorimetry	326.01 ± 0.5 J/K/mol
360.85 K, Crystal, Vacuum adiabatic calorimetry	334.71 ± 0.51 J/K/mol
364.78 K, Crystal, Vacuum adiabatic calorimetry	343.22 ± 0.52 J/K/mol
365.47 K, Crystal, Vacuum adiabatic calorimetry	344.57 ± 0.52 J/K/mol
365.99 K, Crystal, Vacuum adiabatic calorimetry	347.25 ± 0.53 J/K/mol
368.76 K, Crystal, Vacuum adiabatic calorimetry	353.17 ± 0.53 J/K/mol
381.15 K, Liquid, Vacuum adiabatic calorimetry	364.06 ± 0.54 J/K/mol
381.64 K, Liquid, Vacuum adiabatic calorimetry	364.18 ± 0.54 J/K/mol
382.95 K, Liquid, Vacuum adiabatic calorimetry	365.06 ± 0.54 J/K/mol
388.39 K, Liquid, Vacuum adiabatic calorimetry	368.05 ± 0.55 J/K/mol
390.22 K, Liquid, Vacuum adiabatic calorimetry	369.13 ± 0.55 J/K/mol
405.19 K, Liquid, Vacuum adiabatic calorimetry	377.51 ± 0.56 J/K/mol
410.1 K, Liquid, Small sample (50 mg) DSC	380.3 ± 9.3 J/K/mol and 382.63 ± 9.4 J/K/mol
422.04 K, Liquid, Vacuum adiabatic calorimetry	386.86 ± 0.57 J/K/mol
430 K, Liquid, Small sample (50 mg) DSC	394.6 ± 9.6 J/K/mol and 391.03 ± 9.6 J/K/mol
436.24 K, Liquid, Vacuum adiabatic calorimetry	394.72 ± 0.57 J/K/mol
450 K, Liquid, Small sample (50 mg) DSC	405.58 ± 9.9 J/K/mol and 401.51 ± 9.8 J/K/mol
470.1 K, Liquid, Small sample (50 mg) DSC	411.15 ± 10 J/K/mol and 413.48 ± 10 J/K/mol
490 K, Liquid, Small sample (50 mg) DSC	424.7 ± 10 J/K/mol and 423.46 ± 10 J/K/mol
510 K, Liquid, Small sample (50 mg) DSC	434.93 ± 11 J/K/mol and 427.36 ± 10 J/K/mol
530.1 K, Liquid, Small sample (50 mg) DSC	446.82 ± 11 J/K/mol and 444.24 ± 11 J/K/mol
550.1 K, Liquid, Small sample (50 mg) DSC	457.21 ± 11 J/K/mol and 455.97 ± 11 J/K/mol
570.1 K, Liquid, Small sample (50 mg) DSC	468.27 ± 11 J/K/mol and 467.27 ± 11 J/K/mol
590.1 K, Liquid, Small sample (50 mg) DSC	477.92 ± 12 J/K/mol and 476.09 ± 12 J/K/mol
610.1 K, Liquid, Small sample (50 mg) DSC	484.48 ± 12 J/K/mol and 484.15 ± 12 J/K/mol

Details	Molar enthalpy of transition or fusion [kcal/mol]
[3]	5.406 ± 0.00574
